Results: patent US20240366809A1, “INHIBITOR OF PROSTATE SPECIFIC MEMBRANE ANTIGEN AND PHARMACEUTICAL USE THEREOF” (TIANJIN HENGRUI MEDICINE CO., LTD., priority 2021, published 2024)
“And” between values parts separate entries of the source, which are not always exact repeats. Equal values may be shown once.

Key:
[1] = tested on: human organs; test: Absorbed doses of radiation, estimates for human organs (OLINDA software); settings: for radiation dose estimate, Adrenals: human organ: Adrenals; for radiation dose estimate, Brain: human organ: Brain; for radiation dose estimate, Esophagus: human organ: Esophagus; for radiation dose estimate, Eyes: human organ: Eyes; for radiation dose estimate, Gallbladder Wall: human organ: Gallbladder Wall; for radiation dose estimate, Heart Wall: human organ: Heart Wall; for radiation dose estimate, Kidneys: human organ: Kidneys; for radiation dose estimate, Left colon: human organ: Left colon; for radiation dose estimate, Liver: human organ: Liver; for radiation dose estimate, Lungs: human organ: Lungs; for radiation dose estimate, Osteogenic Cells: human organ: Osteogenic Cells; for radiation dose estimate, Pancreas: human organ: Pancreas; for radiation dose estimate, Prostate: human organ: Prostate; for radiation dose estimate, Rectum: human organ: Rectum; for radiation dose estimate, Red Marrow: human organ: Red Marrow; for radiation dose estimate, Right colon: human organ: Right colon; for radiation dose estimate, Salivary Glands: human organ: Salivary Glands; for radiation dose estimate, Small Intestine: human organ: Small Intestine; for radiation dose estimate, Spleen: human organ: Spleen; for radiation dose estimate, Stomach Wall: human organ: Stomach Wall; for radiation dose estimate, Testes: human organ: Testes; for radiation dose estimate, Thymus: human organ: Thymus; for radiation dose estimate, Thyroid: human organ: Thyroid; for radiation dose estimate, Urinary Bladder Wall: human organ: Urinary Bladder Wall; for radiation dose estimate, Effective Dose: human: Effective Dose; for radiation dose estimate, Total Body: human: Total Body
Procedure: The AUC of drug metabolisms was calculated from the biodistribution (Bio-D) data and imported into the OLINDA software to generate doses of radiation absorbed by all the organs.

[2] = Pharmacokinetics in blood of normal mice after single tail-vein injection; format: in vivo; settings: for Blood % ID/g: normal mice, individual animals 1-4
Procedure: Through single tail-vein injections into mice, the pharmacokinetics of ^68Ga-v (Example 9) and PSMA-617 in blood was studied.
Each mouse was dosed at 50 μCi/100 μL, and blood samples were taken from the orbit 0.083, 0.25, 0.5, 1, 2, and 4 h post-dose (4 animals per time point). The blood samples were collected in pre-weighed sample tubes. The tubes were weighed and the weight of the blood samples was recorded. Then radioactivity counting was performed using a γ-counter. Meanwhile, a test sample was accurately diluted 100-fold, and 0.1 mL of the dilution was added to a counting tube and used as standard 1% ID (i.e., one percent of the injected dose). The radioactivity counts of the 1% ID standard and the biological samples were measured simultaneously on a γ-counter. The data on blood were expressed as the percentage of the radioactivity counts per gram of blood to the total injected dose (radioactivity counts) (% ID/g). Pharmacokinetic parameters were calculated from blood drug concentration data.

In the case of O=C([O-])CN1CCN(CC(=O)[O-])CCN(CC(=O)NCC2CCC(C(=O)N[C@@H](Cc3ccc4ccccc4c3)C(=O)NCCCC[C@H](NC(=O)N[C@@H](CCC(=O)O)C(=O)O)C(=O)O)CC2)CCN(CC(=O)[O-])CC1.[68Ga+3] (stereo partly shown) [^68Ga-PSMA-617, reference compound], the “radiation dose estimate, Adrenals” value [1] is reported as 7.49E−02 mSv/MBq, the “radiation dose estimate, Brain” value [1] is reported as 7.80E−02 mSv/MBq and the “radiation dose estimate, Esophagus” value [1] is reported as 1.79E−02 mSv/MBq. For the same compound, the “radiation dose estimate, Eyes” value [1] was 1.25E−02 mSv/MBq, the “radiation dose estimate, Gallbladder Wall” value [1] was 3.22E−02 mSv/MBq and the “radiation dose estimate, Heart Wall” value [1] was 3.93E−02 mSv/MBq. The “radiation dose estimate, Kidneys” value [1] was 5.47E−01 mSv/MBq, the “radiation dose estimate, Left colon” value [1] was 1.63E−02 mSv/MBq and the “radiation dose estimate, Liver” value [1] was 1.75E−01 mSv/MBq. For the same compound, the “radiation dose estimate, Lungs” value [1] was 1.21E−01 mSv/MBq, the “radiation dose estimate, Osteogenic Cells” value [1] was 3.14E−01 mSv/MBq and the “radiation dose estimate, Pancreas” value [1] was 1.86E−02 mSv/MBq. For the same compound, the “radiation dose estimate, Prostate” value [1] was 7.73E−03 mSv/MBq, the “radiation dose estimate, Rectum” value [1] was 1.83E−01 mSv/MBq and the “radiation dose estimate, Red Marrow” value [1] was 2.11E−02 mSv/MBq. The “radiation dose estimate, Right colon” value [1] was 1.34E−02 mSv/MBq, the “radiation dose estimate, Salivary Glands” value [1] was 9.39E−03 mSv/MBq and the “radiation dose estimate, Small Intestine” value [1] was 1.00E−01 mSv/MBq. The “radiation dose estimate, Spleen” value [1] was 1.79E−01 mSv/MBq, the “radiation dose estimate, Stomach Wall” value [1] was 1.91E−02 mSv/MBq and the “radiation dose estimate, Testes” value [1] was 3.69E−03 mSv/MBq. The “radiation dose estimate, Thymus” value [1] was 1.16E−02 mSv/MBq, the “radiation dose estimate, Thyroid” value [1] was 1.08E−02 mSv/MBq and the “radiation dose estimate, Urinary Bladder Wall” value [1] was 5.54E−03 mSv/MBq. The “radiation dose estimate, Effective Dose” value [1] was 4.68E−02 mSv/MBq, the “radiation dose estimate, Total Body” value [1] was 3.61E−02 mSv/MBq and the “Blood % ID/g” value ([2]; 0.083 h post-dose) was 4.22 % ID/g (2×) and 4.29 % ID/g and 3.66 % ID/g. The “content of the radioactive substance in the blood” value ([2]; 0.25 h after the injections, mean of n=4) was 2.27±0.44 % ID/g, the “Blood % ID/g” value ([2]; 0.25 h post-dose) was 2.12 % ID/g and 2.53 % ID/g and 2.71 % ID/g and 1.73 % ID/g and the “Blood % ID/g” value ([2]; 0.5 h post-dose) was 0.55 % ID/g (2×) and 0.84 % ID/g and 0.86 % ID/g. For the same compound, the “Blood % ID/g” value ([2]; 1 h post-dose) was 0.14 % ID/g and 0.16 % ID/g and 0.10 % ID/g and 0.13 % ID/g, the “Blood % ID/g” value ([2]; 2 h post-dose) was 0.04 % ID/g and 0.07 % ID/g and 0.10 % ID/g and 0.13 % ID/g and the “Blood % ID/g” value ([2]; 4 h post-dose) was 0.29 % ID/g and 0.10 % ID/g and 0.09 % ID/g. The “half-life in the blood” value ([2]; blood of normal mice) was 13.2 min, the AUCINF_obs ([2]; blood of normal mice, 0-4 h) was 1.65 ± 0.13 h* % ID/g and the AUClast ([2]; blood of normal mice, 0-4 h) was 1.66 ± 0.14 h* % ID/g. It also gave a Cl_obs ([2]; blood of normal mice, 0-4 h) of 12.10 ± 1.0 μCi/h* % ID/g, a Cmax ([2]; blood of normal mice, 0-4 h) of 4.10 ± 0.29 % ID/g and an MRTlast ([2]; blood of normal mice, 0-4 h) of 19.8 ± 3 min. The Vz_obs ([2]; blood of normal mice, 0-4 h) was 4.06 ± 1.39 μCi/% ID/g and the t1/2 ([2]; blood of normal mice, 0-4 h) was 13.2 min and 13.2 ± 1.2 min.
With O=C([O-])CN1CCN(CC(=O)[O-])CCN(CC(=O)NCC2CCC(C(=O)N[C@@H](Cc3ccc4ccccc4c3)C(=O)NCCCC[C@H](NC(=O)N[C@@H](CCC(=O)O)C(=O)O)C(=O)O)CC2)CCN(CC(=O)[O-])CC1.[177Lu+3] (stereo partly shown) [^177Lu-PSMA-617, reference compound] the “radiation dose estimate, Adrenals” value [1] was 2.43E−02 mSv/MBq, the “radiation dose estimate, Brain” value [1] was 1.38E−01 mSv/MBq and the “radiation dose estimate, Esophagus” value [1] was 3.39E−03 mSv/MBq. The “radiation dose estimate, Eyes” value [1] was 2.74E−03 mSv/MBq, the “radiation dose estimate, Gallbladder Wall” value [1] was 3.58E−03 mSv/MBq and the “radiation dose estimate, Heart Wall” value [1] was 2.41E−02 mSv/MBq. For the same compound, the “radiation dose estimate, Kidneys” value [1] was 1.47E+00 mSv/MBq, the “radiation dose estimate, Left colon” value [1] was 4.60E−03 mSv/MBq and the “radiation dose estimate, Liver” value [1] was 3.15E−02 mSv/MBq. For the same compound, the “radiation dose estimate, Lungs” value [1] was 1.12E−01 mSv/MBq, the “radiation dose estimate, Osteogenic Cells” value [1] was 5.58E−01 mSv/MBq and the “radiation dose estimate, Pancreas” value [1] was 4.36E−03 mSv/MBq. The “radiation dose estimate, Prostate” value [1] was 1.23E−03 mSv/MBq, the “radiation dose estimate, Rectum” value [1] was 1.49E−03 mSv/MBq and the “radiation dose estimate, Red Marrow” value [1] was 3.80E−03 mSv/MBq. For the same compound, the “radiation dose estimate, Right colon” value [1] was 2.74E−03 mSv/MBq, the “radiation dose estimate, Salivary Glands” value [1] was 2.18E−03 mSv/MBq and the “radiation dose estimate, Small Intestine” value [1] was 4.48E−02 mSv/MBq. The “radiation dose estimate, Spleen” value [1] was 9.86E−01 mSv/MBq, the “radiation dose estimate, Stomach Wall” value [1] was 8.22E−03 mSv/MBq and the “radiation dose estimate, Testes” value [1] was 5.04E−04 mSv/MBq. The “radiation dose estimate, Thymus” value [1] was 2.04E−03 mSv/MBq, the “radiation dose estimate, Thyroid” value [1] was 1.83E−03 mSv/MBq and the “radiation dose estimate, Urinary Bladder Wall” value [1] was 7.53E−04 mSv/MBq. For the same compound, the “radiation dose estimate, Effective Dose” value [1] was 4.74E−02 mSv/MBq and the “radiation dose estimate, Total Body” value [1] was 2.91E−02 mSv/MBq.
For O=C([O-])CN1CCN(CC(=O)[O-])CCN(CC(=O)N2CCO[C@]3(CC[C@H](C(=O)N[C@@H](Cc4ccc5ccccc5c4)C(=O)NCCCC[C@H](NC(=O)N[C@@H](CCC(=O)O)C(=O)O)C(=O)O)CC3)C2)CCN(CC(=O)[O-])CC1.[177Lu+3] [^177Lu-v], the “absorbed dose of radiation, comparison with the labeled PSMA-617 in words” value ([1]; from Table 5) was “smaller than that resulting from ^177Lu-PSMA-617”, the “radiation dose estimate, Adrenals” value [1] was 1.74E−02 mSv/MBq and the “radiation dose estimate, Brain” value [1] was 6.03E−02 mSv/MBq. For the same compound, the “radiation dose estimate, Esophagus” value [1] was 4.33E−03 mSv/MBq, the “radiation dose estimate, Eyes” value [1] was 2.21E−03 mSv/MBq and the “radiation dose estimate, Gallbladder Wall” value [1] was 4.67E−03 mSv/MBq. The “radiation dose estimate, Heart Wall” value [1] was 2.72E−02 mSv/MBq, the “radiation dose estimate, Kidneys” value [1] was 8.83E−01 mSv/MBq and the “radiation dose estimate, Left colon” value [1] was 4.81E−03 mSv/MBq. The “radiation dose estimate, Liver” value [1] was 7.43E−02 mSv/MBq, the “radiation dose estimate, Lungs” value [1] was 1.95E−01 mSv/MBq and the “radiation dose estimate, Osteogenic Cells” value [1] was 6.52E−01 mSv/MBq. The “radiation dose estimate, Pancreas” value [1] was 5.14E−03 mSv/MBq, the “radiation dose estimate, Prostate” value [1] was 1.29E−03 mSv/MBq and the “radiation dose estimate, Rectum” value [1] was 1.91E−03 mSv/MBq. For the same compound, the “radiation dose estimate, Red Marrow” value [1] was 4.16E−03 mSv/MBq, the “radiation dose estimate, Right colon” value [1] was 3.03E−03 mSv/MBq and the “radiation dose estimate, Salivary Glands” value [1] was 1.67E−03 mSv/MBq. The “radiation dose estimate, Small Intestine” value [1] was 1.73E−01 mSv/MBq, the “radiation dose estimate, Spleen” value [1] was 6.84E−01 mSv/MBq and the “radiation dose estimate, Stomach Wall” value [1] was 2.73E−02 mSv/MBq. The “radiation dose estimate, Testes” value [1] was 5.84E−04 mSv/MBq, the “radiation dose estimate, Thymus” value [1] was 2.83E−03 mSv/MBq and the “radiation dose estimate, Thyroid” value [1] was 2.41E−03 mSv/MBq. For the same compound, the “radiation dose estimate, Urinary Bladder Wall” value [1] was 9.14E−04 mSv/MBq, the “radiation dose estimate, Effective Dose” value [1] was 5.46E−02 mSv/MBq and the “radiation dose estimate, Total Body” value [1] was 3.07E−02 mSv/MBq.
